System: P12-Ichikawa
Assay: cell viability relative to DMSO control; higher = less cytotoxic
Conditions: 48 h
Outline: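 Library compounds in DMSO were pin-dosed into 1536-well plates (5 μl) holding NOMO1 or SEM (500 cells/well) or P12-Ichikawa (1000 cells/well) leukemia cells, across an 11-point threefold series of 47 μM to 0.79 nM. Each cell line had been adapted for at least four passages in each medium. CellTiter-Glo One luminescence was read after 48 h at 37°C. Viability is the per-plate percentage relative to DMSO wells, with cell-free wells as background.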

[1] = HPLM + 10% dialyzed FBS, 0.000781 µM
[2] = HPLM + 10% dialyzed FBS, 0.00234 µM
[3] = HPLM + 10% dialyzed FBS, 0.00702 µM
[4] = HPLM + 10% dialyzed FBS, 0.0211 µM
[5] = HPLM + 10% dialyzed FBS, 0.0632 µM
[6] = HPLM + 10% dialyzed FBS, 0.19 µM
[7] = HPLM + 10% dialyzed FBS, 0.569 µM
[8] = HPLM + 10% dialyzed FBS, 1.71 µM
[9] = HPLM + 10% dialyzed FBS, 5.12 µM
[10] = HPLM + 10% dialyzed FBS, 15.4 µM
[11] = HPLM + 10% dialyzed FBS, 46.1 µM
[12] = RPMI 5 mM glucose + 10% FBS, 0.000781 µM
[13] = RPMI 5 mM glucose + 10% FBS, 0.00234 µM
[14] = RPMI 5 mM glucose + 10% FBS, 0.00702 µM
[15] = RPMI 5 mM glucose + 10% FBS, 0.0211 µM
[16] = RPMI 5 mM glucose + 10% FBS, 0.0632 µM
[17] = RPMI 5 mM glucose + 10% FBS, 0.19 µM
[18] = RPMI 5 mM glucose + 10% FBS, 0.569 µM
[19] = RPMI 5 mM glucose + 10% FBS, 1.71 µM
[20] = RPMI 5 mM glucose + 10% FBS, 5.12 µM
[21] = RPMI 5 mM glucose + 10% FBS, 15.4 µM
[22] = RPMI 5 mM glucose + 10% FBS, 46.1 µM
[23] = RPMI 5 mM glucose + 10% dialyzed FBS, 0.000781 µM
[24] = RPMI 5 mM glucose + 10% dialyzed FBS, 0.00234 µM
[25] = RPMI 5 mM glucose + 10% dialyzed FBS, 0.00702 µM
[26] = RPMI 5 mM glucose + 10% dialyzed FBS, 0.0211 µM
[27] = RPMI 5 mM glucose + 10% dialyzed FBS, 0.0632 µM
[28] = RPMI 5 mM glucose + 10% dialyzed FBS, 0.19 µM
[29] = RPMI 5 mM glucose + 10% dialyzed FBS, 0.569 µM
[30] = RPMI 5 mM glucose + 10% dialyzed FBS, 1.71 µM
[31] = RPMI 5 mM glucose + 10% dialyzed FBS, 5.12 µM
[32] = RPMI 5 mM glucose + 10% dialyzed FBS, 15.4 µM
[33] = RPMI 5 mM glucose + 10% dialyzed FBS, 46.1 µM

SMILES | cell viability [1] | cell viability [2] | cell viability [3] | cell viability [4] | cell viability [5] | cell viability [6] | cell viability [7] | cell viability [8] | cell viability [9] | cell viability [10] | cell viability [11] | cell viability [12] | cell viability [13] | cell viability [14] | cell viability [15] | cell viability [16] | cell viability [17] | cell viability [18] | cell viability [19] | cell viability [20] | cell viability [21] | cell viability [22] | cell viability [23] | cell viability [24] | cell viability [25] | cell viability [26] | cell viability [27] | cell viability [28] | cell viability [29] | cell viability [30] | cell viability [31] | cell viability [32] | cell viability [33]
Oc1cccc(-c2nc(N3CCOCC3)c3oc4ncccc4c3n2)c1 | 118% | 119% | 123% | 123% | 117% | 121% | 131% | 118% | 116% | 79.2% | 73.3% | 122% | 114% | 132% | 129% | 110% | 102% | 80.8% | 79% | 108% | 94.6% | 75.3% | 121% | 123% | 119% | 126% | 113% | 110% | 98.4% | 81.5% | 114% | 108% | 95.7%
CN(C)CCOc1ccc(-c2nc(-c3ccncc3)c(-c3ccc4c(c3)CC/C4=N\O)[nH]2)cc1 | 103% | 107% | 106% | 100% | 103% | 109% | 106% | 100% | 93.7% | 90.6% | 65.9% | 113% | 108% | 109% | 110% | 109% | 107% | 109% | 103% | 94.5% | 96.4% | 65.6% | 109% | 104% | 114% | 101% | 106% | 105% | 109% | 104% | 96.8% | 84% | 66.7%
CCN(C(=O)C/1=C(O)/C2=C(C=CC=C2Cl)N(C)C1=O)C3=CC=CC=C3 | 93.7% | 100% | 98.1% | 102% | 97.9% | 93.2% | 95.9% | 77.6% | 31.8% | 2.09% | 3.36% | 90.3% | 97% | 98.7% | 105% | 88.8% | 77.5% | 82.7% | 52.7% | 25.4% | 1.95% | 2.3% | 85.2% | 91.3% | 91.5% | 96.4% | 99.6% | 78.5% | 82.8% | 46.1% | 16.3% | 2.21% | 3.11%
CCOC(=O)c1cncn1[C@H](C)c1ccccc1 | 122% | 123% | 115% | 127% | 128% | 121% | 125% | 121% | 112% | 109% | 106% | 125% | 129% | 122% | 136% | 122% | 116% | 121% | 113% | 115% | 114% | 120% | 121% | 126% | 119% | 124% | 128% | 122% | 126% | 121% | 115% | 113% | 111%
CC1=C(CC(=O)O)c2cc(F)ccc2/C1=C\c1ccc([S+](C)[O-])cc1 (configuration not stated) | 121% | 110% | 116% | 123% | 124% | 117% | 116% | 109% | 108% | 106% | 101% |  |  |  |  |  |  |  |  |  |  |  | 121% | 120% | 127% | 125% | 112% | 122% | 109% | 108% | 111% | 111% | 105%
CC[C@@]1(O)C(=O)OCC/2=C1/C=C3\N(CC4=CC5=CC(=CC=C5N=C34)O)C2=O |  |  |  |  |  |  |  |  |  |  |  | 122% | 120% | 117% | 91.5% | 11.4% | 9.55% | 8.05% | 7.2% | 6.2% | 5.86% | 6.96% | 115% | 127% | 106% | 88.7% | 16.9% | 12.1% | 10.2% | 6.53% | 6.88% | 6.54% | 8.98%
CO/C1=C/C(C)=C\[C@@H](C)[C@@H](O)[C@@H](C)C/C(C)=C\C=C/[C@H](OC)[C@@H]([C@@H](C)[C@@H](O)[C@H](C)[C@@]2(O)C[C@@H](O)[C@H](C)[C@@H](C(C)C)O2)OC1=O | 88.2% | 99.5% | 91.5% | 96.3% | 81.7% | 39.5% | 34.8% | 34.8% | 37.5% | 36.8% | 33% | 89% | 96.6% | 99.1% | 88.6% | 70.1% | 37.8% | 29.4% | 27.9% | 26.4% | 25.4% | 22.1% | 82.4% | 88.3% | 88.3% | 75.2% | 60.7% | 29.9% | 19.9% | 21.3% | 19.4% | 20% | 18%
COC1=C2C[C@@H](C)C[C@H](OC)[C@H](O)[C@@H](C)/C=C(\C)[C@H](OC(N)=O)[C@@H](OC)/C=C/C=C(\C)C(=O)NC(=CC1=O)C2=O | 114% | 106% | 116% | 109% | 107% | 113% | 98.6% | 104% | 77.4% | 48.4% | 38.6% | 106% | 109% | 108% | 112% | 108% | 108% | 102% | 90.8% | 80.5% | 51.5% | 27.2% | 116% | 117% | 114% | 111% | 108% | 111% | 108% | 94.4% | 72.2% | 34.2% | 28%
